Tested on: MV-4-11 cells
Test: Gene expression microarray analysis (Affymetrix PrimeView) and GSEA
Assay type: cell-based, human
Design: RFU PODN (11730768_x_at) / Fold change /veh PODN (11730768_x_at) / RFU LINC00158 (11744669_a_at) / Fold change /veh LINC00158 (11744669_a_at) / RFU DUSP10 (11751237_a_at) / Fold change /veh DUSP10 (11751237_a_at) / RFU ID3 (11757404_x_at) / Fold change /veh ID3 (11757404_x_at) / RFU PLEKHG5 (11737974_s_at) / Fold change /veh PLEKHG5 (11737974_s_at) / RFU LRRC4B (11730491_at) / Fold change /veh LRRC4B (11730491_at) / RFU GIMAP4 (11747438_a_at) / Fold change /veh GIMAP4 (11747438_a_at) / RFU KRT8 (11758183_x_at) / Fold change /veh KRT8 (11758183_x_at) / RFU CNN1 (11734310_a_at) / Fold change /veh CNN1 (11734310_a_at) / RFU VPS37D (11726825_at) / Fold change /veh VPS37D (11726825_at) / RFU C10orf10 (11716522_x_at) / Fold change /veh C10orf10 (11716522_x_at) / RFU KIR2DL2 /// KIR2DL4 /// KIR2DL5A /// KIR2DL5B /// KIR2DS1 /// KIR2DS2 /// KIR2DS3 /// KIR2DS4 /// KIR3DL3 /// KIR3DL3 /// KIR3DS1 (11738374_at) / Fold change /veh KIR2DL2 /// KIR2DL4 /// KIR2DL5A /// KIR2DL5B /// KIR2DS1 /// KIR2DS2 /// KIR2DS3 /// KIR2DS4 /// KIR3DL3 /// KIR3DL3 /// KIR3DS1 (11738374_at) / RFU C1QL1 (11718748_at) / Fold change /veh C1QL1 (11718748_at) / RFU TMPRSS4 (11747572_a_at) / Fold change /veh TMPRSS4 (11747572_a_at) / RFU HAMP (11756126_x_at) / Fold change /veh HAMP (11756126_x_at) / RFU RNFT2 (11725882_a_at) / Fold change /veh RNFT2 (11725882_a_at) / RFU NR4A2 (11747474_a_at) / Fold change /veh NR4A2 (11747474_a_at) / RFU ABCC12 (11746883_a_at) / Fold change /veh ABCC12 (11746883_a_at) / RFU TMEM136 (11760407_x_at) / Fold change /veh TMEM136 (11760407_x_at) / RFU CLDN22 /// WWC2 (11732394_at) / Fold change /veh CLDN22 /// WWC2 (11732394_at) / RFU HLA-DPB1 (11760878_x_at) / Fold change /veh HLA-DPB1 (11760878_x_at) / RFU SPINT1 (11716480_a_at) / Fold change /veh SPINT1 (11716480_a_at) / RFU GAP43 (11754022_s_at) / Fold change /veh GAP43 (11754022_s_at) / RFU A4GNT (11735810_at) / Fold change /veh A4GNT (11735810_at) / RFU PRB3 (11715151_x_at) / Fold change /veh PRB3 (11715151_x_at) / RFU TUBB4B (11761932_at) / Fold change /veh TUBB4B (11761932_at) / RFU CAPN14 (11732068_a_at) / Fold change /veh CAPN14 (11732068_a_at) / RFU TMCC2 (11721928_a_at) / Fold change /veh TMCC2 (11721928_a_at) / RFU IRGQ (11745062_a_at) / Fold change /veh IRGQ (11745062_a_at) / RFU FAM174B (11720279_a_at) / Fold change /veh FAM174B (11720279_a_at) / RFU TMPRSS4 (11748680_a_at) / Fold change /veh TMPRSS4 (11748680_a_at) / RFU FAM212B (11763350_a_at) / Fold change /veh FAM212B (11763350_a_at) / RFU PLEKHG5 (11743358_a_at) / Fold change /veh PLEKHG5 (11743358_a_at) / RFU ZSCAN30 (11745921_a_at) / Fold change /veh ZSCAN30 (11745921_a_at) / RFU CMKLR1 (11741424_a_at) / Fold change /veh CMKLR1 (11741424_a_at) / RFU LOC101060620 /// MAPK8IP1 (11723275_at) / Fold change /veh LOC101060620 /// MAPK8IP1 (11723275_at) / RFU SPTSSB (11747773_x_at) / Fold change /veh SPTSSB (11747773_x_at) / RFU PRSS12 (11739890_at) / Fold change /veh PRSS12 (11739890_at) / RFU BIN1 (11741810_x_at) / Fold change /veh BIN1 (11741810_x_at) / RFU WNT11 (11732464_a_at) / Fold change /veh WNT11 (11732464_a_at) / RFU C10orf10 (11716521_a_at) / Fold change /veh C10orf10 (11716521_a_at) / RFU C5orf56 (11738089_at) / Fold change /veh C5orf56 (11738089_at) / RFU CYB561 (11721691_x_at) / Fold change /veh CYB561 (11721691_x_at) / RFU ANKRD19P (11752326_a_at) / Fold change /veh ANKRD19P (11752326_a_at) / RFU OR2T12 /// OR2T33 /// OR2T8 (11738714_s_at) / Fold change /veh OR2T12 /// OR2T33 /// OR2T8 (11738714_s_at) / RFU VCAN (11748164_a_at) / Fold change /veh VCAN (11748164_a_at) / RFU JSRP1 (11732532_at) / Fold change /veh JSRP1 (11732532_at) / RFU KRTAP10-11 (11738290_x_at) / Fold change /veh KRTAP10-11 (11738290_x_at) / RFU MYO3A (11730013_a_at) / Fold change /veh MYO3A (11730013_a_at) / RFU EBF3 (11725865_a_at) / Fold change /veh EBF3 (11725865_a_at) / RFU CAMK2N1 (11719241_x_at) / Fold change /veh CAMK2N1 (11719241_x_at) / RFU C5orf56 (11738088_a_at) / Fold change /veh C5orf56 (11738088_a_at) / RFU OLFML3 (11715873_a_at) / Fold change /veh OLFML3 (11715873_a_at) / RFU LOC100653217 /// NTM (11731650_a_at) / Fold change /veh LOC100653217 /// NTM (11731650_a_at) / RFU MAPK11 (11762145_a_at) / Fold change /veh MAPK11 (11762145_a_at) / RFU FIZ1 (11724087_x_at) / Fold change /veh FIZ1 (11724087_x_at) / RFU OASL (11726364_x_at) / Fold change /veh OASL (11726364_x_at) / RFU SOX15 (11748057_x_at) / Fold change /veh SOX15 (11748057_x_at) / RFU CD79A (11719716_a_at) / Fold change /veh CD79A (11719716_a_at) / RFU HIST1H1D (11736915_at) / Fold change /veh HIST1H1D (11736915_at) / RFU CASKIN2 (11723855_a_at) / Fold change /veh CASKIN2 (11723855_a_at) / RFU LOC730098 (11760151_x_at) / Fold change /veh LOC730098 (11760151_x_at) / RFU OR4N2 (11742367_at) / Fold change /veh OR4N2 (11742367_at) / RFU PRRT2 (11749266_a_at) / Fold change /veh PRRT2 (11749266_a_at) / RFU SNX32 (11753110_a_at) / Fold change /veh SNX32 (11753110_a_at) / RFU CDHR5 (11726645_a_at) / Fold change /veh CDHR5 (11726645_a_at) / RFU RCAN1 (11760418_a_at) / Fold change /veh RCAN1 (11760418_a_at) / RFU FAM167A (11723789_a_at) / Fold change /veh FAM167A (11723789_a_at) / RFU FAM26E (11764081_at) / Fold change /veh FAM26E (11764081_at) / RFU ISYNA1 (11749810_s_at) / Fold change /veh ISYNA1 (11749810_s_at) / RFU ACY1 (11761880_at) / Fold change /veh ACY1 (11761880_at) / RFU 11764098_at / Fold change /veh 11764098_at / RFU SAMD14 (11745864_x_at) / Fold change /veh SAMD14 (11745864_x_at) / RFU NPB (11741838_a_at) / Fold change /veh NPB (11741838_a_at) / RFU TMPRSS6 (11731388_a_at) / Fold change /veh TMPRSS6 (11731388_a_at) / RFU KRTAP10-2 (11738614_at) / Fold change /veh KRTAP10-2 (11738614_at) / RFU ARHGAP8 /// PRR5-ARHGAP8 (11727945_x_at) / Fold change /veh ARHGAP8 /// PRR5-ARHGAP8 (11727945_x_at) / RFU KRTAP5-7 /// NADSYN1 (11734609_at) / Fold change /veh KRTAP5-7 /// NADSYN1 (11734609_at) / RFU RASL12 (11751679_a_at) / Fold change /veh RASL12 (11751679_a_at) / RFU CDKN2B (11736163_a_at) / Fold change /veh CDKN2B (11736163_a_at) / RFU PRF1 (11729649_at) / Fold change /veh PRF1 (11729649_at) / RFU, ZNF638 /// ZNF638-IT1 / Fold change vs veh, ZNF638 /// ZNF638-IT1 / RFU, PANK3 / Fold change vs veh, PANK3 / RFU, SH3YL1 / Fold change vs veh, SH3YL1 / RFU, ZEB2 / Fold change vs veh, ZEB2 / RFU, NRIP1 / Fold change vs veh, NRIP1 / RFU, PTTG1IP / Fold change vs veh, PTTG1IP / RFU, CAPN2 / Fold change vs veh, CAPN2 / RFU, MED14 / Fold change vs veh, MED14 / RFU, SNORA58 / Fold change vs veh, SNORA58 / RFU, C1orf63 / Fold change vs veh, C1orf63 / RFU, LRRFIP1 / Fold change vs veh, LRRFIP1 / RFU, NDUFAF7 / Fold change vs veh, NDUFAF7 / RFU, SLC12A2 / Fold change vs veh, SLC12A2 / RFU, IBTK / Fold change vs veh, IBTK / RFU, ESF1 / Fold change vs veh, ESF1 / Fold change vs veh, TMEM50B / RFU, TAOK1 / Fold change vs veh, TAOK1 / RFU, ACBD3 / Fold change vs veh, ACBD3 / RFU, TMA16 / Fold change vs veh, TMA16 / RFU, RWDD3 / Fold change vs veh, RWDD3 / RFU, BCAT1 / Fold change vs veh, BCAT1 / RFU, EDEM3 / Fold change vs veh, EDEM3 / RFU, TMEM33 / Fold change vs veh, TMEM33 / RFU, WDR75 / Fold change vs veh, WDR75 / RFU, AHCTF1 / Fold change vs veh, AHCTF1 / RFU, TFRC / Fold change vs veh, TFRC / RFU, ZDHHC17 / Fold change vs veh, ZDHHC17 / RFU, NOM1 / Fold change vs veh, NOM1 / RFU, ARL8B / Fold change vs veh, ARL8B / RFU, ZBTB11 / Fold change vs veh, ZBTB11 / RFU, TAMM41 / Fold change vs veh, TAMM41 / RFU, KIAA1704 /// LOC100996395 / Fold change vs veh, KIAA1704 /// LOC100996395 / RFU, ING1 / Fold change vs veh, ING1 / RFU, TRMT61B / Fold change vs veh, TRMT61B / RFU, FUBP3 / Fold change vs veh, FUBP3 / RFU, TP53 / Fold change vs veh, TP53 / RFU, TNKS2 / Fold change vs veh, TNKS2 / RFU, ZFP14 / Fold change vs veh, ZFP14 / RFU, ACTR2 / Fold change vs veh, ACTR2 / RFU, PPP3R1 / Fold change vs veh, PPP3R1 / RFU, PIK3R1 / Fold change vs veh, PIK3R1 / RFU, HNRNPA1 / Fold change vs veh, HNRNPA1 / RFU, RNF170 / Fold change vs veh, RNF170 / RFU, ZNF28 / Fold change vs veh, ZNF28 / RFU, RNGTT / Fold change vs veh, RNGTT / RFU, OGT / Fold change vs veh, OGT / RFU, BRD1 / Fold change vs veh, BRD1 / RFU, MARS / Fold change vs veh, MARS / RFU, ZNF655 / Fold change vs veh, ZNF655 / RFU, FAHD1 / Fold change vs veh, FAHD1 / RFU, BDP1 / Fold change vs veh, BDP1 / RFU, LRRCC1 / Fold change vs veh, LRRCC1 / RFU, ARID1A / Fold change vs veh, ARID1A / RFU, ZNF146 / Fold change vs veh, ZNF146 / RFU, ZNF330 / Fold change vs veh, ZNF330 / RFU, GPN3 / Fold change vs veh, GPN3 / RFU, C9orf123 / Fold change vs veh, C9orf123 / RFU, N4BP2L2 / Fold change vs veh, N4BP2L2 / RFU, ARFIP1 / Fold change vs veh, ARFIP1 / RFU, FAM179B / Fold change vs veh, FAM179B / RFU, BCL10 / Fold change vs veh, BCL10 / RFU, UHRF1BP1L / Fold change vs veh, UHRF1BP1L / RFU, BET1 / Fold change vs veh, BET1 / RFU, CNOT2 / Fold change vs veh, CNOT2 / RFU, ZNF268 / Fold change vs veh, ZNF268 / Fold change vs veh, ZNF507 / RFU, DGCR2 / Fold change vs veh, DGCR2 / RFU, WDSUB1 / Fold change vs veh, WDSUB1 / Fold change vs veh, HSP90B1 /// MIR3652 / RFU, ADSS / Fold change vs veh, ADSS / RFU, GK / Fold change vs veh, GK / RFU, ZNF148 / Fold change vs veh, ZNF148 / RFU, TAF9 / Fold change vs veh, TAF9 / RFU, SLC1A5 / Fold change vs veh, SLC1A5 / RFU, SLMO2 / Fold change vs veh, SLMO2 / RFU, ABCC4 / Fold change vs veh, ABCC4 / RFU, LOC101060439 /// RAP1B / Fold change vs veh, LOC101060439 /// RAP1B / RFU, RFX7 / Fold change vs veh, RFX7 / RFU, GTPBP10 / Fold change vs veh, GTPBP10 / RFU, CNEP1R1 / Fold change vs veh, CNEP1R1 / RFU, BIVM-ERCC5 /// ERCC5 / Fold change vs veh, BIVM-ERCC5 /// ERCC5 / RFU, ILF3 / Fold change vs veh, ILF3 / RFU 11762660_at / Fold change /veh 11762660_at / RFU VCAN (11757783_s_at) / Fold change /veh VCAN (11757783_s_at) / RFU DDX43 (11728927_at) / Fold change /veh DDX43 (11728927_at) / RFU KRT8 (11758188_x_at) / Fold change /veh KRT8 (11758188_x_at) / RFU NKD1 (11759106_at) / Fold change /veh NKD1 (11759106_at) / RFU SRD5A1 (11742802_a_at) / Fold change /veh SRD5A1 (11742802_a_at) / RFU TPSAB1 /// TPSB2 (11721975_s_at) / Fold change /veh TPSAB1 /// TPSB2 (11721975_s_at) / RFU GSTM3 (11746129_a_at) / Fold change /veh GSTM3 (11746129_a_at) / RFU IL23R (11737362_x_at) / Fold change /veh IL23R (11737362_x_at) / RFU TMEM51 (11727254_a_at) / Fold change /veh TMEM51 (11727254_a_at) / RFU PIWIL2 (11732686_x_at) / Fold change /veh PIWIL2 (11732686_x_at) / RFU ORM1 (11744905_x_at) / Fold change /veh ORM1 (11744905_x_at) / RFU CCDC152 (11743942_at) / Fold change /veh CCDC152 (11743942_at) / RFU ECM1 (11717891_a_at) / Fold change /veh ECM1 (11717891_a_at) / RFU IL23R (11748794_a_at) / Fold change /veh IL23R (11748794_a_at) / RFU TNFAIP8L3 (11732012_x_at) / Fold change /veh TNFAIP8L3 (11732012_x_at) / RFU MBOAT4 (11741988_at) / Fold change /veh MBOAT4 (11741988_at) / RFU 11764193_at / Fold change /veh 11764193_at / RFU TMEM53 (11763286_at) / Fold change /veh TMEM53 (11763286_at) / RFU MAGEB2 (11727129_at) / Fold change /veh MAGEB2 (11727129_at) / RFU TMEM200A (11744735_a_at) / Fold change /veh TMEM200A (11744735_a_at) / RFU CCDC152 (11751479_a_at) / Fold change /veh CCDC152 (11751479_a_at) / RFU FAM211A (11726209_a_at) / Fold change /veh FAM211A (11726209_a_at) / RFU RGS16 (11746705_a_at) / Fold change /veh RGS16 (11746705_a_at) / RFU VCAN (11755009_s_at) / Fold change /veh VCAN (11755009_s_at) / RFU RHOB (11743442_s_at) / Fold change /veh RHOB (11743442_s_at) / RFU RGS16 (11720943_a_at) / Fold change /veh RGS16 (11720943_a_at) / RFU RGS16 (11720944_at) / Fold change /veh RGS16 (11720944_at) / RFU, VPS4B / Fold change vs veh, VPS4B / RFU, CREB1 / Fold change vs veh, CREB1 / RFU, DNAJC13 / Fold change vs veh, DNAJC13 / RFU, GNAQ / Fold change vs veh, GNAQ / RFU, CDK5R1 / Fold change vs veh, CDK5R1 / RFU, ZRANB3 / Fold change vs veh, ZRANB3 / RFU, CUL4A / Fold change vs veh, CUL4A / RFU, CCNY / Fold change vs veh, CCNY / RFU, UFL1 / Fold change vs veh, UFL1 / RFU, COG3 / Fold change vs veh, COG3 / RFU, DIAPH2 / Fold change vs veh, DIAPH2 / RFU, SKA2 / Fold change vs veh, SKA2 / RFU, AFF3 / Fold change vs veh, AFF3 / RFU, LMF1 / Fold change vs veh, LMF1 / RFU, IPO11 / Fold change vs veh, IPO11 / RFU, DFFB / Fold change vs veh, DFFB / RFU, FOXP1 / Fold change vs veh, FOXP1 / RFU, CARD8 / Fold change vs veh, CARD8 / RFU, STRN3 / Fold change vs veh, STRN3 / RFU, ADK / Fold change vs veh, ADK / RFU, RASSF2 / Fold change vs veh, RASSF2 / RFU, WIPF1 / Fold change vs veh, WIPF1 / RFU, LARP1B / Fold change vs veh, LARP1B / RFU, RASA1 / Fold change vs veh, RASA1 / RFU, RB1 / Fold change vs veh, RB1 / RFU, PPFIA1 / Fold change vs veh, PPFIA1 / RFU, MAT2A / Fold change vs veh, MAT2A / RFU, CCT5 / Fold change vs veh, CCT5 / RFU, WDR92 / Fold change vs veh, WDR92 / RFU, CUX1 / Fold change vs veh, CUX1 / RFU, TTC7A / Fold change vs veh, TTC7A / RFU, TMEM135 / Fold change vs veh, TMEM135 / RFU, DEPTOR / Fold change vs veh, DEPTOR / RFU, CPM / Fold change vs veh, CPM / RFU, DNAJB6 / Fold change vs veh, DNAJB6 / RFU, CACNA2D3 / Fold change vs veh, CACNA2D3 / RFU, DTX4 / Fold change vs veh, DTX4 / RFU, TFCP2 / Fold change vs veh, TFCP2 / RFU, GMCL1 /// GMCL1P1 / Fold change vs veh, GMCL1 /// GMCL1P1 / RFU, AEBP2 / Fold change vs veh, AEBP2 / RFU, SNHG1 /// SNORD22 /// SNORD25 /// SNORD26 /// SNORD27 /// SNORD28 /// SNORD29 /// SNORD31 / Fold change vs veh, SNHG1 /// SNORD22 /// SNORD25 /// SNORD26 /// SNORD27 /// SNORD28 /// SNORD29 /// SNORD31 / Fold change (Aza/veh), C12orf56 (ProbeSet 11735607_a_at) / Fold change (ACY-1035/veh), C12orf56 (ProbeSet 11735607_a_at) / Fold change (Aza/veh), FGFR1OP (ProbeSet 11751329_s_at) / Fold change (ACY-1035/veh), FGFR1OP (ProbeSet 11751329_s_at) / Fold change (Aza/veh), VPS36 (ProbeSet 11739960_a_at) / Fold change (ACY-1035/veh), VPS36 (ProbeSet 11739960_a_at) / RFU SYPL1 (11715823_x_at) / Fold change /veh SYPL1 (11715823_x_at) / RFU IGFBP7 (11715501_s_at) / Fold change /veh IGFBP7 (11715501_s_at) / RFU REEP3 (11722064_at) / Fold change /veh REEP3 (11722064_at) / RFU IGLL1 (11728026_x_at) / Fold change /veh IGLL1 (11728026_x_at): dose or concentration left out as unconfirmed
Details: ProbeSet 11753055_s_at; LIST B

With `Nc1ncn([C@@H]2O[C@H](CO)[C@@H](O)[C@H]2O)c(=O)n1` [azacitidine] the “RFU, LOC101060439 /// RAP1B” value was 558.59 RFU.
